Measurements: US20030068321A1, “Methods of effecting neuronal activity” (Guilford Pharmaceuticals, Inc., priority 2001, published 2003)
Entries after “also recorded” stand apart in the source; their conditions may differ. Peptide text beside a SMILES is read from it.

Tested on: chick sensory neurons from dorsal root ganglia
Experiment: Chick dorsal root ganglion cultures and neurite outgrowth
Type: cell-based
Settings: 1 mM concentration; whole DRG explants, forty-eight hours after drug treatment
Procedure: Dorsal root ganglia were dissected from chick embryos of ten-day gestation. Whole ganglion explants were cultured on thin layer Matrigel-coated 12 well plates with Liebovitz L15 plus high glucose media supplemented with 2 mM glutamine and 10% fetal calf serum, and also containing 10 μM cytosine […] (Ara C) at 37° C. in an environment containing 5% CO2. Twenty-four hours later, the DRGs were treated with various concentrations of nerve growth factor, immunophilin ligands or combinations of NFG plus drugs. Forty-eight hours after drug treatment, the ganglia were visualized under phase contrast or Hoffman Modulation contrast with a Zeiss Axiovert inverted microscope. Photomicrographs of the explants were made, and neurite outgrowth was quantitated. Neurites longer that the DRG diameter were counted as positive, with total number of neurites quantitated per each experimental condition. Three to four DRGs are cultured per well, and each treatment was performed in duplicate.
The maximal increase in the number of processes, their length and branching is quite similar at maximally effective […] of the cyclophilin ligands and of NGF (100 ng/ml). With progressively increasing concentrations of the various drugs, one observes a larger number of processes, more extensive branching and a grater length of individual processes.

Row | SMILES | neurotrophic effects (promotion of neurite outgrowth in chick sensory neurons)
1 | CC(=O)N1CCC[C@H]1C(=O)NCC(=O)N1CCC[C@H]1C(=O)N[C@@H](Cc1ccccc1)C(N)=O [compound 1] (Ac-PGPF-NH2) | promotion of neurite outgrowth; also recorded: powerful neurotrophic effects
2 | CC(=O)N1CCC[C@H]1C(=O)N[C@@H](C)C(=O)N1CCC[C@H]1C(=O)N[C@@H](C)C(N)=O [compound 2] (Ac-PAPA-NH2) | promotion of neurite outgrowth; also recorded: potent neurotrophic effects
